The results in this text go back to patent US20230149381A1, “BREAST CANCER THERAPEUTIC AGENT” (Eisai R&D Management Co., Ltd., priority 2020, published 2023).

Experiment [1] concerns human breast cancer patient-derived tumor (OD-BRE-0438). As to the kind of experiment: Growth inhibition effect of compound A after palbociclib and fulvestrant administration, patient-derived tumor graft in mice. To be noted: NOD-SCID mice, after 14 days palbociclib + fulvestrant. The experiment is classed as in vivo. The method, then: Example 1 Growth inhibition effect of compound A after palbociclib and fulvestrant administration for human breast cancer patient-derived tumor (OD-BRE-0438) Using NOD-SCID mice (NOD.CB17-Prkdcscid/J, female, Charles River Japan), with 5 to 6 mice per group, the antitumor effect of administering compound A after completion of an administration period with palbociclib and fulvestrant was evaluated.
OD-BRE-0438 is a tumor line from an estrogen receptor-positive breast cancer patient, established by Oncodesign Co. The tumor slices were grafted under the mouse skin and subcultured. The tumors excised from the mice were cut to about 4 mm-square, and a trocar (φ3.5 mm) was used for grafting under the skin of the right flank of each mouse.
A 1 mg/mL solution of β-estradiol (FujiFilm-Wako) was prepared with 99.5% ethanol (FujiFilm-Wako). It was then adjusted to a final concentration of 2.5 μg/mL using supply-use sterilized water. The mouse were given free access to food from the day of tumor grafting until the end of the test.
(§1) The long and short diameters of the tumors were measured using an electronic digital caliper (Digimatic™ caliper by Mitsutoyo Corp.). The tumor volumes were calculated by the following formula.
(§2) Tumor volume (mm^3)=Long diameter (mm)×short diameter (mm)×short diameter (mm)/2
Commercially available palbociclib isethionate (Selleck Chemicals) was adjusted to 10 mg/mL concentration with 50 mM sodium lactate buffer (pH 4.0). A commercially available fulvestrant formulation (trade name: Faslodex Intramuscular Injection 250 mg, by AstraZeneca) was used directly.
Palbociclib and fulvestrant administration was initiated from the 26th day after tumor grafting. Palbociclib was orally administered once per day for 14 days at a dosage of 100 mg/kg (10 mL/kg). Fulvestrant was hypodermically injected on the 26th and 33rd day, at a dosage of 250 mg/kg (5 mL/kg).
On the 40th day, the mice were divided into groups in such a manner that the average tumor volumes were approximately the same in each group. The control group consisted of 6 mice, and the compound A-administered group consisted of 5 mice, at different dosages.
Compound A was dissolved in purified water to a concentration of 2.5 mg/mL. Compound A was orally administered to the mice in each group at a dose of 25 mg/kg (10 mL/kg) or 50 mg/kg (20 mL/kg), once per day for 14 days. The control group was untreated.
The tumor volume and body weight of each mouse were measured on day 3, 7, 10 and 14 after starting administration of compound A. The changes in mean tumor volume in each group are shown in Table 1 and FIG. 1.

In experiment [2] the test system is human breast cancer patient derived tumor (OD-BRE-0438). As to the kind of experiment: Growth inhibiting effect of compound A on patient-derived tumor graft in mice (Reference Example 1, no pretreatment). In kind it is in vivo. The following applies: NOD-SCID mice. The method, then: as §1, §2
Reference Example 1 Growth inhibiting effect of compound A on human breast cancer patient derived tumor (OD-BRE-0438)
The antitumor effect of administering compound A was evaluated using NOD-SCID mice (NOD.CB17-Prkdcscid/J, female, Charles River Japan), with 6 mice per group.
Tumor slices were grafted under the mouse skin and subcultured. The tumors excised from the mice were cut to about 4 mm-square, and a trocar ((φ3.5 mm) was used for grafting under the skin of the right flank of each mouse, for evaluation of the antitumor effect.
A 1 mg/mL solution of β-estradiol (FujiFilm-Wako) was prepared with 99.5% ethanol (FujiFilm-Wako). It was then adjusted to a final concentration of […] using supply-use sterilized water. The mice were given free access to food from the day of tumor grafting until the end of the test.
Compound A was dissolved in purified water to a concentration of 2.5 mg/mL. On the 32nd day after tumor grafting, the mice were divided into groups in such a manner that the average tumor volumes were approximately the same in each group. The tumor volumes were calculated by the same method as Example 1.
Compound A was orally administered to the mice in each group at a dose of 50 mg/kg (20 mL/kg), once per day for 14 days. The control group was untreated.
The tumor volume and body weight of each mouse were measured on day 3, 7, 10 and 14 after starting administration of compound A. The changes in mean tumor volume in each group are shown in Table 2 and FIG. 2.

[3] abbreviates: Day 0 (baseline at grouping), compound A 50 mg/kg oral once per day.
The mark [4] stands for this setting: Day 3, compound A 50 mg/kg oral once per day.
[5] abbreviates: Day 7, compound A 50 mg/kg oral once per day.
Setting [6] is: Day 10, compound A 50 mg/kg oral once per day.
The mark [7] stands for this setting: Day 14, compound A 50 mg/kg oral once per day.

For `CNC(=O)n1ccc2cc(Oc3ccnc(NC(=O)c4ccc(C5CCN(CCO)CC5)cc4)c3)c(OCCOC)cc21` [Compound A, 5-((2-(4-(1-(2-hydroxyethyl)piperidin-4-yl)benzamide)pyridin-4-yl)oxy)-6-(2-methoxyethoxy)-N-methyl-1H-indole-1-carboxamide], the mean tumor volume in experiment [1] (Day 0 (baseline at grouping), compound A 25 mg/kg oral once per day) came out at 261.4 mm^3; in experiment [1] (setting [3]) it was 262.6 mm^3; in experiment [1] (Day 3, compound A 25 mg/kg oral once per day) it was 211.9 mm^3; in experiment [1] (setting [4]), 174.8 mm^3; in experiment [1] (Day 7, compound A 25 mg/kg oral once per day), 167.6 mm^3; in experiment [1] (setting [5]), 136.1 mm^3. Moreover, the mean tumor volume is recorded as 138.3 mm^3 in experiment [1] (Day 10, compound A 25 mg/kg oral once per day); 110.4 mm^3 in experiment [1] (setting [6]); 134.1 mm^3 in experiment [1] (Day 14, compound A 25 mg/kg oral once per day); 96.6 mm^3 in experiment [1] (setting [7]); 234.1 mm^3 in experiment [2] (setting [3]); 267.0 mm^3 in experiment [2] (setting [4]). For the same molecule, the figures for the mean tumor volume in experiment [2] (setting [5]), in experiment [2] (setting [6]) and in experiment [2] (setting [7]) were 338.8 mm^3, 380.8 mm^3 and 403.4 mm^3, respectively.
